Results published in patent US20240174642A1, “HETEROCYCLIC COMPOUNDS CAPABLE OF ACTIVATING STING” (Boehringer Ingelheim International GmbH, priority 2022, published 2024).
Like-named read-outs stand apart in the source and are kept apart here.

Key:
[1] = tested on: dog STING (dSTING); assay: Dog differential scanning fluorimetry (DSF) assay, thermal shift of dog STING protein; assay type: binding; conditions: 100 μM compound, 3 μM recombinant dog STING (residues 149 to 375), 5× SYPRO Orange, 2% DMSO
Description: The protein used for the biophysical experiments was a recombinant dog STING protein comprising its cytosolic cGAMP binding ectodomain. A codon optimized DNA sequence (for expression in Escherichia coli) encoding amino acid residues 149 to 375 of dog STING was synthesized by GeneArt (Regensburg, Germany) and inserted into a pET17b E. coli expression vector. The protein construct encodes an N-terminal 8× His-tag followed by tobacco etch virus protease (TEV) cleavage site and the above STING gene sequence. The resulting protein sequence for the used dog STING protein (SEQ ID No. 1) is listed below:
For expression of the above recombinant dog STING, the construct was transformed into E. coli BL21 DE3 strain and grown in shake flasks in LB-medium at 15° C. Expression was induced by addition of isopropyl β-D-1-thiogalactopyranoside to a final concentration of 1 mM and cultures shaken overnight. Cell pellets were centrifuged and stored at −70° C. until further use. Protein was purified by cell thawing in lysis buffer (20 mM TRIS-HCl, pH 8, 500 mM NaCl, 1 mM DTT, 0.5 mg/ml lysozyme, Complete Protease Inhibitor (Roche) and DNase (Roche)), followed by metal affinity purification using Ni-NTA resins and elution buffer consisting of 20 mM TRIS-HCl, pH 8, 500 mM NaCl, 1 mM DTT, 300 mM imidazole. Cleavage of the His-Tag using TEV-protease took place during dialysis in size exclusion buffer (20 mM TRIS-HCl, pH 8, 100 mM NaCl, 1 mM DTT) over night. To further purify the target protein a reverse Nickel affinity column was used and the flow through was applied to a size exclusion chromatography. The peak fraction was collected and concentrated to 5 mg/mL.
Dye fluorescence is quenched in aqueous environment and increases upon association of the dye with the hydrophobic parts of the unfolding protein. […] The inflection point of the curve represents the “melting” temperature of the protein (Tm) which is calculated numerically using the Boltzmann equation.
The thermal stability of the dog STING protein was measured in assay buffer containing 20 mM Tris, 150 mM NaCl at pH7.5. The assay uses 384-Well qPCR Plates (Catalog #781358, BRAND), Microseal®‘B’ Adhesive Seals for PCR Plates (Catalog #MSB-1001, BIO-RAD) and was run on a CFX384 Real-Time System (Bio-Rad). A DMSO stock solution of SYPRO orange (SIGMA 55692-500UL) was prepared. Compound stock solutions (10 mM in DMSO) were diluted 1:2 in DMSO to an intermediate compound concentration of 5 mM and then further diluted 1:40 in assay buffer resulting in a compound concentration of 125 μM and 2.5% DMSO. Fluorescent dye stock solution (5000× SYPRO Orange) was then mixed with target protein and buffer to a concentration of 15 μM Protein and 25× SYPRO Orange. 2 μl of this protein-dye-mixture was added to 8 μl compound solution. Final volume was 10 μL. 3-6 well positions were used as negative control (protein with 2% DMSO). The plates were prepared for duplicate measurement and centrifuged for 2 min at 1000 g. In the measurement, 160 cycles of 0.5° C. were used (temperature ramp 15 s/cycle, 15° C. to 95° C.).
Final Assay concentrations for compound characterization were 100 μM compound, 3 μM target protein, 5× SYPRO Orange, and 2% DMSO in 10 μl. All dispensing steps were performed using a HamiltonStar pipetting robot (Hamilton).
Dissociation curves were processed in Bio-Rad CFX Manager. Peak type was set to “negative”. Compound codes for screen were assigned in the plate layout.
Two replicates of TM measurements were averaged, and the standard deviation was calculated. In cases of SD>1.5° C. the measurement was repeated.
The melting point (Tm) obtained for STING protein alone was subtracted from T obtained for protein incubated with ligand to generate ΔTm values.

[2] = tested on: STING; assay: Dog whole blood (dWB) assay, IFNb secretion by ELISA; assay type: cell-based; conditions: 4 h incubation at 37° C., % control relative to cGAMP stimulated control, read-out: EC50, cytokine secretion in dog whole blood (dWB) culture system as determined by canine Interferon-beta (IFNb) ELISA
Protocol: In this assay, freshly collected canine blood is incubated with a STING agonist, and interferon beta levels in the supernatant are quantified by ELISA. […] In accordance with the invention, a combination of a high dDSF and low dWB is especially favorable.
For the detection of STING activation in physiological environment dog whole blood (dWB) was stimulated by the cyclic dinucleotide cGAMP or a test compound. Pathway activity was monitored by measuring the IFNb production.
Compounds were delivered as 10 mM DMSO solution, diluted and transferred by using an Echo acoustic dispenser to the 384well assay plate (Greiner #781182), pre-filled with 10 μl 1× HBSS in each well (10× HBSS (+Ca/+Mg), #14065-049, Gibco). Typically, 8 concentrations were used with the highest concentration at 10 μM in the final assay volume followed by approximately 1:4 dilution steps. DMSO concentration was set to 0.1% in the final assay volume. The 384-well assay plate contained 20 test compounds and DMSO in control and cGAMP standard wells. The dog whole blood was collected as Na-Citrate blood (e.g., 3.8% in Monovettes from Sarstedt) and kept at 4° C. overnight until use in the assay. 80 μl of the whole blood samples were transferred to each well of the 384-well assay plates filled with compound/1×HBSS. Blood plates were kept at room temperature for 60 minutes and continuous shaking with 450 rpm, covered with the lid, but not sealed. A 10× cGAMP assay solution was diluted from a 2 mM stock solution in 1×HBSS immediately before use at room temperature. 10 μl of the 10× cGAMP/HBSS were added to the high control wells, whereas HBSS only was added to all compound and low control wells. After covering assay plates with the lid, blood plates were kept for a 4 h incubation at 37° C. in the incubator, without shaking. For the detection of IFNb in dog plasma the ELISA Kit for Canine Interferon Beta (Biotrend #SEA222Ca) was used. Whole blood assay plates were centrifuged at 1000 g for 10 minutes at 8° C. 40 μl of supernatant was transferred with a 96 well pipetting robotics from the 384 well whole blood plate to the corresponding 96 well ELISA plate, pre-filled with […] assay diluent in each well. Plates were sealed with microplate seals and kept at 4° C. overnight again. ELISA plates were brought to room temperature, followed by a 1 h incubation at 37° C. in the incubator. Detection Reagent A working solution was prepared by diluting Detection Reagent A 1:100 in Assay Reagent A. Liquid was then removed from the 96 well ELISA plate to add 100 μL Detection Reagent A working solution to each well. ELISA plates were covered with the plate sealer and incubated for 1 hour at 37° C. in the incubator. The 1× Wash buffer was prepared by diluting the 30× Wash Buffer Concentrate in H2O. Detection Reagent B working solution was prepared by diluting Detection Reagent B 1:100 in Assay Reagent B. The ELISA plates were washed three times with 350 μl wash buffer and afterwards inverted and blotted against absorbent paper to remove any liquid. 100 μL of Detection Reagent B working solution was added to each well of the ELISA plates, which are then covered with the plate sealer and incubated for 30 minutes at 37° C. in the incubator. After incubation the ELISA assay plates were washed five times with 350 μl wash buffer and were again inverted and blotted against absorbent paper to remove any remaining liquid. 90 μL of TMB Substrate was added to each well of the ELISA plates, which were then covered with the plate sealer and incubated for 15 minutes at 37° C. in the incubator. The reaction was stopped by adding 50 μL stop solution and absorbance was measured at 450 nm immediately.
For data evaluation and calculation, % control calculation of each well was based on the mean of high (cGAMP stimulated control) and mean of low (unstimulated control) controls by using the following standard 4 parameter logistic regression formula: […]

| SMILES | Delta TM, interaction with dog STING as determined by DSF (dDSF) [1] | EC50 ([2]; Canis lupus familiaris) | EC50 [2] |
| --- | --- | --- | --- |
| Cc1cccc2c(-c3cccc4nn(C)cc34)nn(-c3ccc(N4C[C@@H]5CC[C@H]4C[C@H]5C(=O)O)nc3)c12 (single isomer, unassigned) [Example 7] | 15.5 °C | – | – |
| Cc1cccc2c(-c3cccc4nn(C)cc34)nn(-c3ccc(N4C[C@H]5CC[C@@H]4C[C@@H]5C(=O)O)nc3)c12 (single isomer, unassigned) [Example 8] | 24.8 °C | – | – |
| Cc1cccc2c(-c3cccc4nn(C)cc34)nn(-c3ccc(N4C[C@@H]5CC[C@H]4C[C@@H]5C(=O)O)nc3)c12 (single isomer, unassigned) [Example 9] | 33.8 °C | 652 nM | – |
| Cc1cccc2c(-c3cccc4nn(C)cc34)nn(-c3ccc(N4C[C@H]5CC[C@@H]4C[C@H]5C(=O)O)nc3)c12 (single isomer, unassigned) [Example 10] | 35.8 °C | 185 nM | – |
| CC(=O)N1C[C@H]2CC[C@@H]1CN2c1ccc(-n2nc(-c3cccc4nn(C)cc34)c3cccc(C)c32)cn1 (single isomer, unassigned) [Example 14] | 23.8 °C | 2920 nM | – |
| CC(=O)N1C[C@@H]2CC[C@H]1CN2c1ccc(-n2nc(-c3cccc4nn(C)cc34)c3cccc(C)c32)cn1 (single isomer, unassigned) [Example 15] | 30.0 °C | 95.1 nM | – |
| Cc1cccc2c(-c3cccc4nn(C)cc34)nn(-c3ccc(N4C[C@@H]5C[C@H]4C[C@H]5C(=O)O)nc3)c12 (single isomer, unassigned) [Example 18] | 31.5 °C | 519 nM | – |
| Cc1cccc2c(-c3cccc4nn(C)cc34)nn(-c3ccc(N4C[C@H]5C[C@@H]4C[C@@H]5C(=O)O)nc3)c12 (single isomer, unassigned) [Example 19] | 33.5 °C | 278 nM | – |
| Cc1cccc2c(-c3cccc4nn(C)cc34)nn(-c3ccc(N4CC[C@H](CC(=O)O)C4)nc3)c12 [Example 1, 2-[(3R)-1-(5-{2″,7-dimethyl-1H,2″H-[3,4″-biindazol]-1-yl}pyridin-2-yl)pyrrolidin-3-yl]acetic acid] | – | 308 nM | – |
| Cc1cccc2c(-c3cccc4nn(C)cc34)nn(-c3ccc(N4CC[C@@H](CC(=O)O)C4)nc3)c12 [Example 2, 2-[(3S)-1-(5-{2″,7-dimethyl-1H,2″H-[3,4″-biindazol]-1-yl}pyridin-2-yl)pyrrolidin-3-yl]acetic acid] | 33.3 °C | 212 nM | – |
| Cc1cccc2c(-c3cccc4nn(C)cc34)nn(-c3ccc(N4CCOC(CC(=O)O)C4)nc3)c12 (stereo not drawn) [Example 3, 2-[4-(5-{2′,7-dimethyl-1H,2′H-[3,4′-biindazol]-1-yl}pyridin-2-yl)morpholin-2-yl]acetic acid] | 26.1 °C | 3060 nM | – |
| Cc1cccc2c(-c3cccc4nn(C)cc34)nn(-c3ccc(N4CC5CC4CC5C(=O)O)nc3)c12 (stereo not drawn) [Example 4, 2-(5-{2″,7-dimethyl-1H,2″H-[3,4″-biindazol]-1-yl}pyridin-2-yl)-2-azabicyclo[2.2.1]heptane-5-carboxylic acid] | 29.0 °C | 704 nM | – |
| Cc1cccc2c(-c3cccc4nn(C)cc34)nn(-c3ccc(N4CC5CCC4CC5C(=O)O)nc3)c12 (stereo not drawn) [Example 6, 2-(5-{2′,7-dimethyl-1H,2′H-[3,4′-biindazol]-1-yl}pyridin-2-yl)-2-azabicyclo[2.2.2]octane-5-carboxylic acid] | 34.0 °C | 417 nM | – |
| CC(=O)N1C[C@H]2C[C@@H]1CN2c1ccc(-n2nc(-c3cccc4nn(C)cc34)c3cccc(C)c32)cn1 [Example 11, 1-[(1R,4R)-5-(5-{2″,7-dimethyl-1H,2″H-[3,4″-biindazol]-1-yl}pyridin-2-yl)-2,5-diazabicyclo[2.2.1]heptan-2-yl]ethan-1-one] | 28.3 °C | – | 620 nM |
| CC(=O)N1CC2CCC1CN2c1ccc(-n2nc(-c3cccc4nn(C)cc34)c3cccc(C)c32)cn1 (stereo not drawn) [Example 13, 1-[5-(5-{2′,7-dimethyl-1H,2′H-[3,4′-biindazol]-1-yl}pyridin-2-yl)-2,5-diazabicyclo[2.2.2]octan-2-yl]ethan-1-one] | 28.3 °C | 282 nM | – |
